From patent US12723063B2, “GIPR-agonist compounds” (Eli Lilly and Company, priority 2019, dated 2026) come the findings set out here.

As a reminder, the Ki is a measure of affinity in units of concentration, obtained from inhibition or displacement.

The target in one experiment is T1, human GIPR (Homo sapiens, UniProt P48546).
T1 construct: expressed in transfected cells; crude membranes
T1 sequence (P48546 22-466): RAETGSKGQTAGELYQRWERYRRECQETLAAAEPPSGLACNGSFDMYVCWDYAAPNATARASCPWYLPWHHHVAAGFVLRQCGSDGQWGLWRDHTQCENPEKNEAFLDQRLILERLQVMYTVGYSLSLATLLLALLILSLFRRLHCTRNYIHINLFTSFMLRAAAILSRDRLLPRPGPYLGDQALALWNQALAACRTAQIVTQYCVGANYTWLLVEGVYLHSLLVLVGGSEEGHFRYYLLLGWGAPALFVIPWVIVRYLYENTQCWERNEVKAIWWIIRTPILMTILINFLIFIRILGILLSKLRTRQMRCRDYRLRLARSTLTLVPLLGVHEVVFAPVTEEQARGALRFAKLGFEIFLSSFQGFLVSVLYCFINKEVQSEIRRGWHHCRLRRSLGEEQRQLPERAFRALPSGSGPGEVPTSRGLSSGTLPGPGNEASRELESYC
The experiment in a line: [125I]-GIP binding, SPA with WGA beads, 0.1% bacitracin. As to conditions: geometric mean, read-out: hGIPR Ki. A digest of the protocol: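 Ki values are geometric means (SEM, n independent days), derived from four-parameter nonlinear regression of IC50. Membranes came from hGIPR-expressing CHO cells.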

Another experiment has as its target T2, human GcgR (Homo sapiens, UniProt P47871).
T2 construct: expressed in transfected cells; crude membranes
In words: [125I]-Glucagon binding, SPA with WGA beads, 0.1% bacitracin. The settings on record: geometric mean, read-out: hGcgR Ki. The method in brief: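 SPA competition binding with WGA beads on crude membranes from HEK293 cells stably expressing hGcgR. Buffer: 25 mM HEPES pH 7.4, 2.5 mM CaCl2, 1 mM MgCl2, 0.1% bacitracin, 0.003% Tween-20; 10-point 3-fold dilutions, NSB with 1 μM Gcg.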

*1 amine or outer side, *2 acyl side, *3 side chain or, on linkers, in order; H or OH if unused. Where a SMILES comes first, the peptide text is derived from it. Side-chain parts run from the residue outwards. [ ]: non-standard residue; d: D form. The star is where a group is joined. C20 diacid = O=C(O)CCCCCCCCCCCCCCCCCCC(=O)*; C18 diacid = O=C(O)CCCCCCCCCCCCCCCCC(=O)*; αMePhe(2-F) = C[C@](N)(Cc1ccccc1F)C(=O)O; γGlu = O=C(O)[C@H](CCC(=O)[*:2])N[*:1]; AEEA = NCCOCCOCC(=O)O; Aib = CC(C)(N)C(=O)O

T2 sequence (P47871 26-477): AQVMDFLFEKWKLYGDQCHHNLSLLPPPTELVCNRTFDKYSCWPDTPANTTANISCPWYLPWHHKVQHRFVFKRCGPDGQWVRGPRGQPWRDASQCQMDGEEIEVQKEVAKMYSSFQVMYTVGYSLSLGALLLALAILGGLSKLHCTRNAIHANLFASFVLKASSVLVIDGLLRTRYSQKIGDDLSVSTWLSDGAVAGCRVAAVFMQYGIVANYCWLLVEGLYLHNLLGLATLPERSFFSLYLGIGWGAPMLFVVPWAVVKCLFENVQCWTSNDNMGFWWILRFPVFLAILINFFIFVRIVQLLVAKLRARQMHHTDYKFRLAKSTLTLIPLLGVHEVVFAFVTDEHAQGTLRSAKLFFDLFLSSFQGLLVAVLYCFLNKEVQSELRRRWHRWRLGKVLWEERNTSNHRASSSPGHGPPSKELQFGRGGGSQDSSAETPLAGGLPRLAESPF

Take `CC[C@H](C)[C@H](NC(=O)[C@H](CO)NC(=O)[C@H](Cc1ccc(O)cc1)NC(=O)[C@H](CC(=O)O)NC(=O)[C@H](CO)NC(=O)[C@@H](NC(=O)[C@](C)(Cc1ccccc1F)NC(=O)[C@@H](NC(=O)CNC(=O)[C@H](CCC(=O)O)NC(=O)C(C)(C)NC(=O)[C@@H](N)Cc1ccc(O)cc1)[C@@H](C)O)[C@@H](C)CC)C(=O)N[C@@H](C)C(=O)N[C@@H](CC(C)C)C(=O)N[C@@H](CC(=O)O)C(=O)N[C@@H](CCCCN)C(=O)N[C@@H](CCCCNC(=O)COCCOCCNC(=O)COCCOCCNC(=O)CC[C@H](NC(=O)CCCCCCCCCCCCCCCCCCC(=O)O)C(=O)O)C(=O)N[C@@H](Cc1c[nH]cn1)C(=O)N[C@@H](CCC(N)=O)C(=O)NC(C)(C)C(=O)N[C@@H](CCC(=O)O)C(=O)N[C@@H](Cc1ccccc1)C(=O)N[C@H](C(=O)N[C@@H](CC(N)=O)C(=O)N[C@@H](Cc1c[nH]c2ccccc12)C(=O)N[C@@H](CC(C)C)C(=O)N[C@@H](CC(C)C)C(=O)N[C@@H](C)C(=O)NCC(=O)NCC(=O)N1CCC[C@H]1C(=O)N[C@@H](CO)C(=O)N[C@@H](CO)C(=O)NCC(=O)N[C@@H](C)C(=O)N1CCC[C@H]1C(=O)N1CCC[C@H]1C(=O)N1CCC[C@H]1C(=O)N[C@@H](CO)C(N)=O)C(C)C` [Example 26] (H-Y[Aib]EGT[αMePhe(2-F)]ISDYSIALDKK([AEEA-AEEA-γGlu-C20 diacid])HQ[Aib]EFVNWLLAGGPSSGAPPPS-NH2): the Ki came to 0.045 nM at human GIPR and 74.1 nM at human GcgR.

On to `CC[C@H](C)[C@H](NC(=O)[C@H](CO)NC(=O)[C@H](Cc1ccc(O)cc1)NC(=O)[C@H](CC(=O)O)NC(=O)[C@H](CO)NC(=O)[C@@H](NC(=O)[C@H](Cc1ccccc1)NC(=O)[C@@H](NC(=O)CNC(=O)[C@H](CCC(=O)O)NC(=O)[C@@H](C)NC(=O)[C@@H](N)Cc1ccc(O)cc1)[C@@H](C)O)[C@@H](C)CC)C(=O)N[C@@H](CC(C)C)C(=O)N[C@@H](CC(C)C)C(=O)N[C@@H](CC(=O)O)C(=O)N[C@@H](CCCCN)C(=O)N[C@@H](CCCCNC(=O)COCCOCCNC(=O)COCCOCCNC(=O)CC[C@H](NC(=O)CCCCCCCCCCCCCCCCC(=O)O)C(=O)O)C(=O)N[C@@H](C)C(=O)N[C@@H](CCC(N)=O)C(=O)NC(C)(C)C(=O)N[C@@H](CCC(=O)O)C(=O)N[C@@H](Cc1ccccc1)C(=O)N[C@H](C(=O)N[C@@H](CCC(N)=O)C(=O)N[C@@H](Cc1c[nH]c2ccccc12)C(=O)N[C@@H](CC(C)C)C(=O)N[C@@H](CC(C)C)C(=O)N[C@@H](C)C(=O)NCC(=O)NCC(=O)N1CCC[C@H]1C(=O)N[C@@H](CO)C(=O)N[C@@H](CO)C(=O)NCC(=O)N[C@@H](C)C(=O)N1CCC[C@H]1C(=O)N1CCC[C@H]1C(=O)N1CCC[C@H]1C(=O)N[C@@H](CO)C(N)=O)C(C)C` [Example 27] (H-Y[dA]EGTFISDYSILLDKK([AEEA-AEEA-γGlu-C18 diacid])AQ[Aib]EFVQWLLAGGPSSGAPPPS-NH2), for which the inhibition constant Ki came out at 0.0354 nM on human GIPR and 401 nM on human GcgR.

As for `CC[C@H](C)[C@H](NC(=O)[C@H](CO)NC(=O)[C@H](Cc1ccc(O)cc1)NC(=O)[C@H](CC(=O)O)NC(=O)[C@H](CO)NC(=O)[C@@H](NC(=O)[C@H](Cc1ccccc1)NC(=O)[C@@H](NC(=O)CNC(=O)[C@H](CCC(=O)O)NC(=O)[C@@H](C)NC(=O)[C@@H](N)Cc1ccc(O)cc1)[C@@H](C)O)[C@@H](C)CC)C(=O)N[C@@H](CC(C)C)C(=O)N[C@@H](CC(C)C)C(=O)N[C@@H](CC(=O)O)C(=O)N[C@@H](CCCCN)C(=O)N[C@@H](CCCCNC(=O)COCCOCCNC(=O)COCCOCCNC(=O)CC[C@H](NC(=O)CCCCCCCCCCCCCCCCC(=O)O)C(=O)O)C(=O)N[C@@H](C)C(=O)N[C@@H](CCC(N)=O)C(=O)NC(C)(C)C(=O)N[C@@H](CCC(=O)O)C(=O)N[C@@H](Cc1ccccc1)C(=O)N[C@H](C(=O)N[C@@H](CC(N)=O)C(=O)N[C@@H](Cc1c[nH]c2ccccc12)C(=O)N[C@@H](CC(C)C)C(=O)N[C@@H](CC(C)C)C(=O)N[C@@H](CCC(=O)O)C(=O)NCC(=O)NCC(=O)N1CCC[C@H]1C(=O)N[C@@H](CO)C(=O)N[C@@H](CO)C(=O)NCC(=O)N[C@@H](C)C(=O)N1CCC[C@H]1C(=O)N1CCC[C@H]1C(=O)N1CCC[C@H]1C(=O)N[C@@H](CO)C(N)=O)C(C)C` [Example 28] (H-Y[dA]EGTFISDYSILLDKK([AEEA-AEEA-γGlu-C18 diacid])AQ[Aib]EFVNWLLEGGPSSGAPPPS-NH2), the Ki on human GIPR was determined as 0.0732 nM; on human GcgR it was 86.8 nM.

As to `CC[C@H](C)[C@H](NC(=O)[C@H](CO)NC(=O)[C@H](Cc1ccc(O)cc1)NC(=O)[C@H](CC(=O)O)NC(=O)[C@H](CO)NC(=O)[C@@H](NC(=O)[C@H](Cc1ccccc1)NC(=O)[C@@H](NC(=O)CNC(=O)[C@H](CCC(=O)O)NC(=O)[C@@H](C)NC(=O)[C@@H](N)Cc1ccc(O)cc1)[C@@H](C)O)[C@@H](C)CC)C(=O)N[C@@H](CC(C)C)C(=O)N[C@@H](CC(C)C)C(=O)N[C@@H](CC(=O)O)C(=O)N[C@@H](CCCCN)C(=O)N[C@@H](CCCCNC(=O)COCCOCCNC(=O)COCCOCCNC(=O)CC[C@H](NC(=O)CCCCCCCCCCCCCCCCC(=O)O)C(=O)O)C(=O)N[C@@H](C)C(=O)N[C@@H](CCC(N)=O)C(=O)NC(C)(C)C(=O)N[C@@H](CCC(=O)O)C(=O)N[C@@H](Cc1ccccc1)C(=O)N[C@H](C(=O)N[C@@H](CCC(=O)O)C(=O)N[C@@H](Cc1c[nH]c2ccccc12)C(=O)N[C@@H](CC(C)C)C(=O)N[C@@H](CC(C)C)C(=O)N[C@@H](C)C(=O)NCC(=O)NCC(=O)N1CCC[C@H]1C(=O)N[C@@H](CO)C(=O)N[C@@H](CO)C(=O)NCC(=O)N[C@@H](C)C(=O)N1CCC[C@H]1C(=O)N1CCC[C@H]1C(=O)N1CCC[C@H]1C(=O)N[C@@H](CO)C(N)=O)C(C)C` [Example 29] (H-Y[dA]EGTFISDYSILLDKK([AEEA-AEEA-γGlu-C18 diacid])AQ[Aib]EFVEWLLAGGPSSGAPPPS-NH2), the values for the Ki on human GIPR and at human GcgR were 0.0569 nM and 133 nM, respectively.

Consider `CC[C@H](C)[C@H](NC(=O)[C@H](CO)NC(=O)[C@H](Cc1ccc(O)cc1)NC(=O)[C@H](CC(=O)O)NC(=O)[C@H](CO)NC(=O)[C@@H](NC(=O)[C@](C)(Cc1ccccc1F)NC(=O)[C@@H](NC(=O)CNC(=O)[C@H](CCC(=O)O)NC(=O)[C@H](C)NC(=O)[C@@H](Cc1ccc(O)cc1)NC(C)=O)[C@@H](C)O)[C@@H](C)CC)C(=O)N[C@@H](C)C(=O)N[C@@H](CC(C)C)C(=O)N[C@@H](CC(=O)O)C(=O)N[C@@H](CCCCN)C(=O)N[C@@H](CCCCNC(=O)COCCOCCNC(=O)COCCOCCNC(=O)CC[C@H](NC(=O)CCCCCCCCCCCCCCCCC(=O)O)C(=O)O)C(=O)N[C@@H](Cc1c[nH]cn1)C(=O)N[C@@H](CCC(N)=O)C(=O)NC(C)(C)C(=O)N[C@@H](CCC(=O)O)C(=O)N[C@@H](Cc1ccccc1)C(=O)N[C@H](C(=O)N[C@@H](CC(N)=O)C(=O)N[C@@H](Cc1ccc(O)cc1)C(=O)N[C@@H](CC(C)C)C(=O)N[C@@H](CC(C)C)C(=O)N[C@@H](C)C(=O)NCC(=O)NCC(=O)N1CCC[C@H]1C(=O)N[C@@H](CO)C(=O)N[C@@H](CO)C(=O)NCC(=O)N[C@@H](C)C(=O)N1CCC[C@H]1C(=O)N1CCC[C@H]1C(=O)N1CCC[C@H]1C(=O)N[C@@H](CO)C(N)=O)C(C)C` [Example 30] (Ac-[dY]AEGT[αMePhe(2-F)]ISDYSIALDKK([AEEA-AEEA-γGlu-C18 diacid])HQ[Aib]EFVNYLLAGGPSSGAPPPS-NH2), for which the figures for the Ki at human GIPR and at human GcgR were 0.037 nM and 407 nM, respectively.

As for `CC[C@H](C)[C@H](NC(=O)[C@H](CO)NC(=O)[C@H](Cc1ccc(O)cc1)NC(=O)[C@H](CC(=O)O)NC(=O)[C@H](CO)NC(=O)[C@@H](NC(=O)[C@H](Cc1ccccc1)NC(=O)[C@@H](NC(=O)CNC(=O)[C@H](CCC(=O)O)NC(=O)C(C)(C)NC(=O)[C@@H](N)Cc1ccc(O)cc1)[C@@H](C)O)[C@@H](C)CC)C(=O)N[C@@H](CC(C)C)C(=O)N[C@@H](CC(C)C)C(=O)N[C@@H](CC(=O)O)C(=O)N[C@@H](CCCCN)C(=O)N[C@@H](CCCCNC(=O)COCCOCCNC(=O)COCCOCCNC(=O)CC[C@H](NC(=O)CCCCCCCCCCCCCCCCC(=O)O)C(=O)O)C(=O)N[C@@H](Cc1c[nH]cn1)C(=O)N[C@@H](CCC(N)=O)C(=O)NC(C)(C)C(=O)N[C@@H](CC(=O)O)C(=O)N[C@@H](Cc1ccccc1)C(=O)N[C@H](C(=O)N[C@@H](CC(N)=O)C(=O)N[C@@H](Cc1ccc(O)cc1)C(=O)N[C@@H](CC(C)C)C(=O)N[C@@H](CC(C)C)C(=O)N[C@@H](C)C(=O)N[C@@H](C)C(=O)NCC(=O)N1CCC[C@H]1C(=O)N[C@@H](CO)C(=O)N[C@@H](CO)C(=O)NCC(=O)N[C@@H](C)C(=O)N1CCC[C@H]1C(=O)N1CCC[C@H]1C(=O)N1CCC[C@H]1C(=O)N[C@@H](CO)C(N)=O)C(C)C` [Example 31] (H-Y[Aib]EGTFISDYSILLDKK([AEEA-AEEA-γGlu-C18 diacid])HQ[Aib]DFVNYLLAAGPSSGAPPPS-NH2), the figures for the Ki at human GIPR and on human GcgR were 0.0473 nM and > 959 nM, respectively.
